Results as given in ChEMBL document CHEMBL1201862, “PubChem BioAssay data set” (2004).
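Step 1: Grow cells in 96-well plates. Step 2: Expose to compound for 48 hours at 5 concentrations. Step 3: Interpolate endpoints linearly; if unreached, use highest concentration. GI50 = concentration required for 50% inhibition of growth.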 Calls of active or inactive are those of the source. Rule as the data show it: active = GI50 up to about 1.1 µM and inactive = higher.

Legend:
Assay in all cases: NCI tumour cell line growth inhibition, 48 h
ACHN = tested on: ACHN
HCC 2998 = tested on: HCC 2998
HCT-15 = tested on: HCT-15
HT-29 = tested on: HT-29
NCI-H226 = tested on: NCI-H226
NCI-H23 = tested on: NCI-H23
NCI-H522 = tested on: NCI-H522
NCI/ADR-RES = tested on: NCI/ADR-RES
OVCAR-4 = tested on: OVCAR-4
OVCAR-5 = tested on: OVCAR-5
SF-268 = tested on: SF-268
SF-539 = tested on: SF-539
SK-MEL-28 = tested on: SK-MEL-28
SK-OV-3 = tested on: SK-OV-3
SNB-19 = tested on: SNB-19
SNB-75 = tested on: SNB-75
TK-10 = tested on: TK-10
UACC-62 = tested on: UACC-62
A498 = tested on: A498
CAKI-1 = tested on: CAKI-1

Row | Structure (SMILES) | GI50 (ACHN) | GI50 (HCC 2998) | GI50 (HCT-15) [µM] | GI50 (HT-29) | GI50 (NCI-H226) | GI50 (NCI-H23) | GI50 (NCI-H522) | GI50 (NCI/ADR-RES) | GI50 (OVCAR-4) | GI50 (OVCAR-5) | GI50 (SF-268) | GI50 (SF-539) | GI50 (SK-MEL-28) | GI50 (SK-OV-3) | GI50 (SNB-19) | GI50 (SNB-75) | GI50 (TK-10) | GI50 (UACC-62) | GI50 (A498) | GI50 (CAKI-1)
1 | CCc1cc2c(c3c1CCCC3)CC1(Cc3ccc(C(=O)OC)cc3C1)C2 (stereo not drawn) | > 100 µM (inactive) | > 100 µM (inactive) | > 100 | 73.8 µM (inactive) | > 100 µM (inactive) | > 100 µM (inactive) | > 100 µM (inactive) | > 100 µM (inactive) | > 100 µM (inactive) | > 100 µM (inactive) | > 100 µM (inactive) | > 100 µM (inactive) | > 100 µM (inactive) | > 100 µM (inactive) | > 100 µM (inactive) | > 100 µM (inactive) | > 100 µM (inactive) | > 100 µM (inactive) |  | 
2 | CCNC(C)Cc1ccccc1 (stereo not drawn) | > 100 µM (inactive) | > 100 µM (inactive) | > 100 | > 100 µM (inactive) | > 100 µM (inactive) | > 100 µM (inactive) | > 100 µM (inactive) |  | > 100 µM (inactive) | > 100 µM (inactive) | > 100 µM (inactive) | > 100 µM (inactive) | > 100 µM (inactive) | > 100 µM (inactive) | > 100 µM (inactive) | 6.71 µM (inactive) | > 100 µM (inactive) | > 100 µM (inactive) | > 100 µM (inactive) | > 100 µM (inactive)
3 | COc1cc([C@@H]2c3cc4c(cc3[C@@H](NC(=O)c3ccc(C(C)=O)cc3)C3COC(=O)[C@@H]32)OCO4)cc(OC)c1O (stereo partly drawn) | 0.189 µM (active) | 1.41 µM (inactive) | 2.46 | 1.5 µM (inactive) | 0.159 µM (active) | 0.264 µM (active) | 1.1 µM (active) |  | 27.3 µM (inactive) | 0.895 µM (active) | 1.09 µM (active) | 0.316 µM (active) | 2.98 µM (inactive) | 1.56 µM (inactive) | 0.29 µM (active) | 1.24 µM (inactive) | 5.81 µM (inactive) | 0.206 µM (active) | 1.66 µM (inactive) | 1.9 µM (inactive)
4 | CC(=O)OC12c3ccccc3C1CCCC21OCCCO1 (stereo not drawn) | > 100 µM (inactive) | > 100 µM (inactive) | > 100 | > 100 µM (inactive) | > 100 µM (inactive) | > 100 µM (inactive) | > 100 µM (inactive) |  | > 100 µM (inactive) | > 100 µM (inactive) | > 100 µM (inactive) | > 100 µM (inactive) | > 100 µM (inactive) | > 100 µM (inactive) | > 100 µM (inactive) | 37.5 µM (inactive) | > 100 µM (inactive) | > 100 µM (inactive) | > 100 µM (inactive) | > 100 µM (inactive)
5 | O=C1NC(=O)C2C(=O)NC(=O)C1C2(c1ccccc1)c1ccc(Cl)cc1 (stereo not drawn) | > 100 µM (inactive) | > 100 µM (inactive) | > 100 | > 100 µM (inactive) | > 100 µM (inactive) | > 100 µM (inactive) | > 100 µM (inactive) |  | > 100 µM (inactive) | > 100 µM (inactive) | > 100 µM (inactive) | > 100 µM (inactive) | > 100 µM (inactive) | > 100 µM (inactive) | > 100 µM (inactive) | > 100 µM (inactive) | > 100 µM (inactive) | > 100 µM (inactive) | > 100 µM (inactive) | > 100 µM (inactive)
6 | CN(/N=C/c1cccc2cccnc12)c1ccccc1 | 99.5 µM (inactive) | 86.1 µM (inactive) | > 100 | 44.2 µM (inactive) | > 100 µM (inactive) | 59.8 µM (inactive) | > 100 µM (inactive) |  | 87.5 µM (inactive) | > 100 µM (inactive) | > 100 µM (inactive) | 37.2 µM (inactive) | > 100 µM (inactive) | > 100 µM (inactive) | 59.8 µM (inactive) | 20.4 µM (inactive) | 71.1 µM (inactive) | > 100 µM (inactive) | > 100 µM (inactive) | 7.85 µM (inactive)
7 | ClCCCN(CCCCl)c1ccc(/C=N/c2cccc(Cl)c2)cc1 | 7.26 µM (inactive) | 32.1 µM (inactive) | 18.1 | 23.6 µM (inactive) | 2.03 µM (inactive) | 15.5 µM (inactive) | 30.5 µM (inactive) | 11.2 µM (inactive) | 9.75 µM (inactive) | 22.1 µM (inactive) | 21.7 µM (inactive) | 53.2 µM (inactive) | 55.8 µM (inactive) | 49.5 µM (inactive) | 30.1 µM (inactive) | 8.93 µM (inactive) | 4.48 µM (inactive) | 1.49 µM (inactive) |  | 0.652 µM (active)
8 | CCOC(=O)Cc1csc2[n+]1C(=O)/C(=C/c1cccc(OC)c1O)S2 | 69.5 µM (inactive) | 32.2 µM (inactive) | 42.4 | 39 µM (inactive) | > 100 µM (inactive) | 33.7 µM (inactive) |  | 47 µM (inactive) | 64.4 µM (inactive) | > 100 µM (inactive) |  | 60.8 µM (inactive) | 84.9 µM (inactive) | > 100 µM (inactive) | 50.9 µM (inactive) | 18.7 µM (inactive) | 46.2 µM (inactive) | 97.7 µM (inactive) |  | 59.2 µM (inactive)
9 | CN1Cc2c(nc(-c3ccccc3)c[n+]2[O-])N(C)C1 | > 100 µM (inactive) | > 100 µM (inactive) | > 100 | > 100 µM (inactive) | > 100 µM (inactive) | > 100 µM (inactive) | > 100 µM (inactive) |  | > 100 µM (inactive) | > 100 µM (inactive) | > 100 µM (inactive) | > 100 µM (inactive) | > 100 µM (inactive) | > 100 µM (inactive) | > 100 µM (inactive) | > 100 µM (inactive) | > 100 µM (inactive) | > 100 µM (inactive) | > 100 µM (inactive) | > 100 µM (inactive)
10 | COc1cc([N+](=O)[O-])c(S(=O)(=O)O)cc1-n1nc(-c2ccccc2)n[n+]1-c1cc(S(=O)(=O)[O-])c([N+](=O)[O-])cc1OC | > 100 µM (inactive) | > 100 µM (inactive) | > 100 | > 100 µM (inactive) | > 100 µM (inactive) | > 100 µM (inactive) | > 100 µM (inactive) | > 100 µM (inactive) | > 100 µM (inactive) | > 100 µM (inactive) | > 100 µM (inactive) | > 100 µM (inactive) | > 100 µM (inactive) | > 100 µM (inactive) | > 100 µM (inactive) | > 100 µM (inactive) |  | > 100 µM (inactive) |  | > 100 µM (inactive)
11 | C#C/C=C\CCCC/C=C\C#CC#CCCCC#CC#C[C@H](COS(=O)(=O)O)OS(=O)(=O)O | > 100 µM (inactive) | > 100 µM (inactive) | > 100 | > 100 µM (inactive) |  | > 100 µM (inactive) | > 100 µM (inactive) | > 100 µM (inactive) | > 100 µM (inactive) | > 100 µM (inactive) | > 100 µM (inactive) | > 100 µM (inactive) | > 100 µM (inactive) |  | > 100 µM (inactive) | 33 µM (inactive) | > 100 µM (inactive) | > 100 µM (inactive) |  | > 100 µM (inactive)
